Experimental data published in ChEMBL document CHEMBL4828766 (J Med Chem, 2021).
Square brackets hold non-standard residues; d marks the D form. Peptide text beside a SMILES is read from it. dPhe(4-I) = N[C@H](Cc1ccc(I)cc1)C(=O)O; 2Nal = N[C@@H](Cc1ccc2ccccc2c1)C(=O)O; d2Nal = N[C@H](Cc1ccc2ccccc2c1)C(=O)O

Legend:
Format in all cases: functional, cell-based
[1] = molecular target: Melanocyte-stimulating hormone receptor (Mus musculus, UniProt Q01727); experiment: Agonist activity at mouse MC1R expressed in HEK293 cells assessed as induction of cAMP level at 100 uM incubated for 2 hr by alphaScreen assay
Chain of Melanocyte-stimulating hormone receptor (Q01727 whole entry): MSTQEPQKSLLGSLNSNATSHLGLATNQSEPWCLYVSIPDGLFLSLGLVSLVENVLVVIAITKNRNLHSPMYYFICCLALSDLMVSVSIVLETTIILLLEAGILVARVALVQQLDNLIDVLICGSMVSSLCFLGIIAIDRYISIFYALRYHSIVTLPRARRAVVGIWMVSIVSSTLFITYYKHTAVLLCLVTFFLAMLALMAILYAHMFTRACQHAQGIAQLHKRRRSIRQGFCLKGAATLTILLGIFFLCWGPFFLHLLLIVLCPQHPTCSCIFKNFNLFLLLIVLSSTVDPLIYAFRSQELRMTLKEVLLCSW

Melanocortin receptor 3 [2] = molecular target: T1, Melanocortin receptor 3 (Mus musculus, UniProt P33033); experiment: Agonist activity at mouse MC3R expressed in HEK293 cells assessed as induction of cAMP level incubated for 2 hr by alphaScreen assay
T1 sequence (P33033 whole entry): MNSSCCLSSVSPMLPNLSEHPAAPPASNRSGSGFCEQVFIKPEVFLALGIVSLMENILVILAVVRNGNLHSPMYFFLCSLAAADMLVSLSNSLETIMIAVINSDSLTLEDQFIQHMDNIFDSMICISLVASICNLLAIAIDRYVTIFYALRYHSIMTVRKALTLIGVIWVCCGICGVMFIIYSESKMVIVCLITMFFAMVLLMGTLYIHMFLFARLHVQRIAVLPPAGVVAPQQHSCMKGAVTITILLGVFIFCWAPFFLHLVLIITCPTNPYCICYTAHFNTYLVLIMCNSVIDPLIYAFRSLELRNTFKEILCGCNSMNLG

Melanocortin receptor 5 = Melanocortin receptor 5 (Mus musculus, UniProt P41149); experiment: Agonist activity at mouse MC5R expressed in HEK293 cells assessed as induction of cAMP level at 100 uM incubated for 2 hr by alphaScreen assay
Chain of Melanocortin receptor 5 (P41149 whole entry): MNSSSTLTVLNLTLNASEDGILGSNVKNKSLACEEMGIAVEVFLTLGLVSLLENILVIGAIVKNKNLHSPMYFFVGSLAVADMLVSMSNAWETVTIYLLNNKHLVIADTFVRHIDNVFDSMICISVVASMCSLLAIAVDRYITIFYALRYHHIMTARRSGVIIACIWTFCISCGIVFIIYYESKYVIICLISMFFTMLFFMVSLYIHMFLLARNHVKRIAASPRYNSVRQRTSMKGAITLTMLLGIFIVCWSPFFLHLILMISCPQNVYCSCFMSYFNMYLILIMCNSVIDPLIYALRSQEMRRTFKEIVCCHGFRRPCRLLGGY

Melanocortin receptor 3 [3] = molecular target: T1, Melanocortin receptor 3; experiment: Antagonist activity at mouse melanocortin receptor 3 expressed in HEK293 cells assessed as inhibition of NDP-MSH-induced cAMP accumulation incubated for 2 hrs by cAMP Alpha-screen assay based Schild analysis; settings: read-out: pA2 (converted)
Melanocortin receptor 4 [4] = molecular target: T2, Melanocortin receptor 4 (Mus musculus, UniProt P56450); experiment: Antagonist activity at mouse melanocortin receptor 4 expressed in HEK293 cells assessed as inhibition of NDP-MSH-induced cAMP accumulation incubated for 2 hrs by cAMP Alpha-screen assay based Schild analysis; settings: for Kb: read-out: pA2 (converted)
T2 sequence (P56450 whole entry): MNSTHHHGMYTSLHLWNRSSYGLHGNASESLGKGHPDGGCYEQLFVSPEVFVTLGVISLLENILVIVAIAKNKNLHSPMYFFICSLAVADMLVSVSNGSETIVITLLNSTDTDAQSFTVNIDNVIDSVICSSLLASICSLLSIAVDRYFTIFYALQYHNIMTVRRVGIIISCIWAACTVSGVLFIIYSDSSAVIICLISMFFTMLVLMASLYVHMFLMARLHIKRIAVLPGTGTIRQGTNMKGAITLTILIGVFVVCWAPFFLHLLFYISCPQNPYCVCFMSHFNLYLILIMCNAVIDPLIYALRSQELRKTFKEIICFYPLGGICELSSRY

Melanocortin receptor 4 [5] = molecular target: T2, Melanocortin receptor 4; experiment: Agonist activity at mouse MC4R expressed in HEK293 cells assessed as induction of cAMP level incubated for 2 hr by alphaScreen assay
[6] = molecular target: Melanocyte-stimulating hormone receptor (Mus musculus) (UniProt Q01727); experiment: Agonist activity at mouse MC1R expressed in HEK293 cells assessed as induction of cAMP level at 100 uM incubated for 2 hr by alphaScreen assay relative to NDP-MSH
Chain of Melanocyte-stimulating hormone receptor (Mus musculus) (Q01727 whole entry, looked up): as the sequence (Q01727 whole entry) above

[7] = molecular target: Melanocortin receptor 3 (Mus musculus) (UniProt P33033); experiment: Agonist activity at mouse MC3R expressed in HEK293 cells assessed as induction of cAMP level at 100 uM incubated for 2 hr by alphaScreen assay relative to control
Chain of Melanocortin receptor 3 (Mus musculus) (P33033 whole entry): as the sequence (P33033 whole entry) above

[8] = molecular target: Melanocortin receptor 4 (Mus musculus) (UniProt P56450); experiment: Agonist activity at mouse MC4R expressed in HEK293 cells assessed as induction of cAMP level at 100 uM incubated for 2 hr by alphaScreen assay relative to control
Chain of Melanocortin receptor 4 (Mus musculus) (P56450 whole entry): as the sequence (P56450 whole entry) above

Compound	EC50 [1] [µM]	EC50 (Melanocortin receptor 3 [2]) [µM]	EC50 (Melanocortin receptor 5) [µM]	Kb (Melanocortin receptor 3 [3]) [µM]	Kb (Melanocortin receptor 4 [4]) [µM]	EC50 (Melanocortin receptor 4 [5]) [µM]	Ki (Melanocortin receptor 4 [4]) [µM]	Activity [6] [%]	Activity [7] [%]	Activity [8] [%]	Activity ([7]; filed as agonist) [%]	Activity ([6]; filed as agonist) [%]
CC(=O)N[C@H](Cc1ccc2ccccc2c1)C(=O)N[C@@H](CCCNC(=N)N)C(=O)N[C@H](Cc1ccc(I)cc1)C(=O)N[C@H](CCCCN)C(N)=O	0.22	> 100	> 100	0.126	0.00316	> 100						
CC(=O)N[C@H](Cc1ccc(I)cc1)C(=O)N[C@H](Cc1ccc2ccccc2c1)C(=O)N[C@@H](Cc1c[nH]c2ccccc12)C(=O)N[C@@H](CCCNC(=N)N)C(N)=O	> 100	> 100	> 100	> 3.16	2.51	> 100	2.5					
CC(=O)N[C@H](Cc1ccc(I)cc1)C(=O)N[C@H](Cc1ccc2ccccc2c1)C(=O)N[C@H](Cc1ccc(I)cc1)C(=O)N[C@H](CCCCN)C(N)=O	> 100	> 100	> 100	> 3.16	> 3.16	> 100						
CC(=O)N[C@H](Cc1ccc2ccccc2c1)C(=O)N[C@H](Cc1ccc2ccccc2c1)C(=O)N[C@H](Cc1ccc2ccccc2c1)C(=O)N[C@@H](CCCNC(=N)N)C(N)=O				> 3.16	> 3.16			30	35	25		
CC(=O)N[C@H](Cc1ccc2ccccc2c1)C(=O)N[C@@H](CCCNC(=N)N)C(=O)N[C@@H](Cc1c[nH]c2ccccc12)C(=O)N[C@@H](CCCNC(=N)N)C(N)=O (Ac-[d2Nal]RWR-NH2)		> 100	> 100	0.158	0.00501					20		
CC(=O)N[C@H](Cc1ccc2ccccc2c1)C(=O)N[C@@H](CCCNC(=N)N)C(=O)N[C@@H](Cc1c[nH]c2ccccc12)C(=O)N[C@H](Cc1ccc2ccccc2c1)C(N)=O (Ac-[d2Nal]RW[d2Nal]-NH2)			> 100	2	0.1					30	40	
CC(=O)N[C@H](Cc1ccc2ccccc2c1)C(=O)N[C@@H](CCCNC(=N)N)C(=O)N[C@@H](Cc1c[nH]c2ccccc12)C(=O)N[C@H](CCCCN)C(N)=O (Ac-[d2Nal]RW[dK]-NH2)	> 100	> 100	> 100	3.16	0.02	> 100						
CC(=O)N[C@H](Cc1ccc2ccccc2c1)C(=O)N[C@@H](CCCNC(=N)N)C(=O)N[C@@H](Cc1ccc2ccccc2c1)C(=O)N[C@@H](CCCNC(=N)N)C(N)=O (Ac-[d2Nal]R[2Nal]R-NH2)	> 100	> 100	> 100	0.1	0.00158					30		
CC(=O)N[C@H](Cc1ccc2ccccc2c1)C(=O)N[C@@H](CCCNC(=N)N)C(=O)N[C@H](Cc1ccc(I)cc1)C(=O)N[C@@H](CCCNC(=N)N)C(N)=O (Ac-[d2Nal]R[dPhe(4-I)]R-NH2)	0.04	> 100	> 100	0.0794	0.00251	> 100						
CC(=O)N[C@H](Cc1ccc2ccccc2c1)C(=O)N[C@H](Cc1ccc2ccccc2c1)C(=O)N[C@@H](Cc1c[nH]c2ccccc12)C(=O)N[C@H](CCCCN)C(N)=O (Ac-[d2Nal][d2Nal]W[dK]-NH2)		> 100	> 100	1.58	0.2			25		30		
CC(=O)N[C@H](Cc1ccc2ccccc2c1)C(=O)N[C@H](Cc1ccc2ccccc2c1)C(=O)N[C@@H](Cc1ccc2ccccc2c1)C(=O)N[C@H](CCCCN)C(N)=O (Ac-[d2Nal][d2Nal][2Nal][dK]-NH2)		> 100	> 100	> 3.16	> 3.16	> 100						45
CC(=O)N[C@H](Cc1ccc2ccccc2c1)C(=O)N[C@H](Cc1ccc2ccccc2c1)C(=O)N[C@H](Cc1ccc2ccccc2c1)C(=O)N[C@H](CCCCN)C(N)=O (Ac-[d2Nal][d2Nal][d2Nal][dK]-NH2)		> 100	> 100	> 3.16	> 3.16	> 100						55
